# Laboratory results as given in ChEMBL document CHEMBL1201862, “PubChem BioAssay data set” (2004).
# Active and inactive are the calls of the source.
# Tests used:
# Cytochrome P450 1A2 = target: T1, Cytochrome P450 1A2 (Homo sapiens, UniProt P05177);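 note: PubChem cytochrome P450 panel assay, CYP1A2 panel member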
# T1 sequence (P05177 whole entry): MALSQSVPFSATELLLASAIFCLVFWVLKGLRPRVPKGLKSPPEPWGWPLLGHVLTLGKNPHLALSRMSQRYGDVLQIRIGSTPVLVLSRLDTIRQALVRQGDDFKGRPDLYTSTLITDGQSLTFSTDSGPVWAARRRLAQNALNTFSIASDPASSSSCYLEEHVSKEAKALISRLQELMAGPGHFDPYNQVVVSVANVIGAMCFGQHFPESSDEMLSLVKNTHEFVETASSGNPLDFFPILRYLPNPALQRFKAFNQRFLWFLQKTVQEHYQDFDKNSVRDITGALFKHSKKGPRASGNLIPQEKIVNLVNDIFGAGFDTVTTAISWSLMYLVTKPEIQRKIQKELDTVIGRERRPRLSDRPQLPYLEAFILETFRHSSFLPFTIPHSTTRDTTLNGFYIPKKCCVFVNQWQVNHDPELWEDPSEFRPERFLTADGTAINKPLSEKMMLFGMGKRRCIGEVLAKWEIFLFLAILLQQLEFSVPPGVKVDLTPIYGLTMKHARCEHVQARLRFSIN
# [1] = Luminescence Cell-Based Dose Retest to Confirm Inhibitors of Cancer Stem Cells. [Related pubchem assays (depositor defined):AID2717, AID2721]; type: functional; conditions: Homo sapiens
# [2] = viability loss of HMLE_sh_eGFP cells – cell-based, luminescence, counter-screen for HMLE_sh_ECad selective toxicity project, dose response (AID 463074); type: functional, Homo sapiens;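 note: HMLE human mammary epithelial cells expressing control shRNA against eGFP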
# Large T antigen = Large T antigen (Simian virus 40, UniProt P03070); type: functional, Betapolyomavirus macacae;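 note: Confirmatory-stage PubChem screen for compounds that inhibit SV40 T antigen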
# [3] = target: Lysine-specific demethylase 4C (Homo sapiens, UniProt Q9H3R0); experiment: inhibition of JMJD2C H3K9me3 demethylation – biochemical, DELFIA europium, cherry-picked samples, dose response (AID 488835); type: functional
# Genome polyprotein = Genome polyprotein (dengue virus type 2, UniProt P29990); experiment: flavivirus cap methylation enzyme inhibition – biochemical, confirmation dose response, primary screen (AID 588689); type: functional
# [4] = target: T2, Polyadenylate-binding protein 1 (Homo sapiens, UniProt P11940); experiment: MLLE binding blockers, Cy5 peptide tracer – biochemical, fluorescence polarization, Cy5-PAM2 peptide, secondary, miRNA deadenylation inhibitor project, dose response (AID 602260); type: functional; conditions: read-out: IC50_Mean
# [5] = target: T2, Polyadenylate-binding protein 1; experiment: MLLE domain peptide-binding blockers, IC50 – biochemical, fluorescence polarization, FITC-PAM2 peptide, dose response (AID 602259); type: functional; conditions: read-out: IC50_Mean
# [6] = target: T3, Apoptotic protease-activating factor 1 (Homo sapiens, UniProt O14727); experiment: activation of Apaf-1 mediated apoptosis – fluorescent, uHTS hits, dose response (AID 588554); type: functional
# T3 sequence (O14727 whole entry): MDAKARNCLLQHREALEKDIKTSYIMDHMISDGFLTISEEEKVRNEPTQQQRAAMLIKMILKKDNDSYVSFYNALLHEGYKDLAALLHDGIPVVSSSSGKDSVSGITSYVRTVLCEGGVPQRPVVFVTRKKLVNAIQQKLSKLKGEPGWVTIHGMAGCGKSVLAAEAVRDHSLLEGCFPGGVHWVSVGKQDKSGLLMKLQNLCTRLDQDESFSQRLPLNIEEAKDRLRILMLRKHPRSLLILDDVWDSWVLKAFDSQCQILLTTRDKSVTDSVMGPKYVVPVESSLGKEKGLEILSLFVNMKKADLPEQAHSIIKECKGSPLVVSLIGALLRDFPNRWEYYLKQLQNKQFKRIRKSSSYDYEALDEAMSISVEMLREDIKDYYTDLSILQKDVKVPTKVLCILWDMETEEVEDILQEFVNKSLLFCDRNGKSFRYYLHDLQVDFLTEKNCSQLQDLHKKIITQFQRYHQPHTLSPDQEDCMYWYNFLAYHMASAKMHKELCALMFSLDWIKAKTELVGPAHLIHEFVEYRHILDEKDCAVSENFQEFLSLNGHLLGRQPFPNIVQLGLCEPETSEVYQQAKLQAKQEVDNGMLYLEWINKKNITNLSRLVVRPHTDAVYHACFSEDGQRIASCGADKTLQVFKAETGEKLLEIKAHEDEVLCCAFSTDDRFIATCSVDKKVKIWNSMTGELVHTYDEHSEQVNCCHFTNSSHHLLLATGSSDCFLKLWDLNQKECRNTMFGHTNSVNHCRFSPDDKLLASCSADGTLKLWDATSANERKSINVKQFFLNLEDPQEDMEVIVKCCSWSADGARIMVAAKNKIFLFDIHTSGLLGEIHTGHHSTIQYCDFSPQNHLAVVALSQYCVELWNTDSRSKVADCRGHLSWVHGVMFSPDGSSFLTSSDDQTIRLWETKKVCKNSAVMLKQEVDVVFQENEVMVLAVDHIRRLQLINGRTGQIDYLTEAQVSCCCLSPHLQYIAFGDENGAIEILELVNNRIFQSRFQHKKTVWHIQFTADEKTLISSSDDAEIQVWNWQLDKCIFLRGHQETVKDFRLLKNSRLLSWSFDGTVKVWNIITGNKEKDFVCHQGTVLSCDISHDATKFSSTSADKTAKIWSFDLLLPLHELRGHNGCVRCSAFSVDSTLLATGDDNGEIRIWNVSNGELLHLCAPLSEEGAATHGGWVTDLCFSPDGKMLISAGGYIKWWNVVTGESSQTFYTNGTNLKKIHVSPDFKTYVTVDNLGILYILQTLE
# Cytochrome P450 2C19 = Cytochrome P450 2C19 (Homo sapiens, UniProt P33261); experiment: Cytochrome panel assay with activity outcomes. Panel member name: p450-cyp2c19 Compounds with AC50 equal or less than 10 uM are considered active; type: functional
# Cytochrome P450 2D6 = Cytochrome P450 2D6 (Homo sapiens, UniProt P10635);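 note: CYP2D6 member of a cytochrome P450 panel assay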
# [7] = target: T4, Mannose-6-phosphate isomerase (Homo sapiens, UniProt P34949); experiment: phosphomannose isomerase inhibition – biochemical, fluorescence intensity, confirmation (AID 1535)
# T4 sequence (P34949 whole entry): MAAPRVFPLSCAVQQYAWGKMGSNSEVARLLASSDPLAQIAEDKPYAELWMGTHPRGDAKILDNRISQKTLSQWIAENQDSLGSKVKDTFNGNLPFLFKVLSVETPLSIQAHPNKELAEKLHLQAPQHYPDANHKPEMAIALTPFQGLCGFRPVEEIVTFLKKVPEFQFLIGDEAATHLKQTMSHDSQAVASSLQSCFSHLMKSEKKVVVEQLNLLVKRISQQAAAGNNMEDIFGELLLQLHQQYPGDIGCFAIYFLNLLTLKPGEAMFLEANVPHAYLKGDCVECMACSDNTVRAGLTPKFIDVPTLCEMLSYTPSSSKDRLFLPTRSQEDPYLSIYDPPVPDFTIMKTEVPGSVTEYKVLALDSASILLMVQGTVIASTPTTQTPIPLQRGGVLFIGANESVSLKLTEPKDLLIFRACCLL
# Phosphomannomutase 2 = Phosphomannomutase 2 (Homo sapiens, UniProt O15305); experiment: Counter screen SAR assay for PMM2 inhibitors via a fluorescence intensity assay. [Related pubchem assays (depositor defined):AID1545, AID1574]
# cells [8] = type: functional, cell-based
# cells [9] = type: functional, cell-based; remark: listed apart in the source
# Cysteine protease ATG4B [10] = target: T5, Cysteine protease ATG4B (Homo sapiens, UniProt Q9Y4P1); type: functional;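 note: Fluorescence-based dose-response confirmation assay measuring inhibition of ATG4B activity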
# T5 sequence (Q9Y4P1 whole entry): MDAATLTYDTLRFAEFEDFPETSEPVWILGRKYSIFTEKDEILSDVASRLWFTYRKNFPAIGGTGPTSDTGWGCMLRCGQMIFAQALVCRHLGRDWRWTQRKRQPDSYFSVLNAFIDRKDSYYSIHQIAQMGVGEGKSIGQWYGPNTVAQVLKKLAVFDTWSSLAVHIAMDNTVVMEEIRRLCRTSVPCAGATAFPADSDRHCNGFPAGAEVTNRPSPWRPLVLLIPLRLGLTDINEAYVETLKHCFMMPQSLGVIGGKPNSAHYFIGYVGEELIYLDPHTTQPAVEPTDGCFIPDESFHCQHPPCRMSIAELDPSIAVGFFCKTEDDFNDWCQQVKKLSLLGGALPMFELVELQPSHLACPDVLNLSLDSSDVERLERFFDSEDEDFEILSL
# Phospholipase A2 [11] = target: T6, Phospholipase A2 (Homo sapiens, UniProt P04054); experiment: phospholipase A2 activity inhibition – biochemical, set 2, counter-screen for ATG4B inhibitor project, dose response (AID 588586); type: functional
# Phospholipase A2 [12] = target: T6, Phospholipase A2; type: functional
# Cysteine protease ATG4B [13] = target: T5, Cysteine protease ATG4B; experiment: autophagin-1 cysteine protease inhibition – biochemical, fluorescence, set 2, dose response (AID 588584); type: functional
# Keap1/Nrf2 = Keap1/Nrf2 (Homo sapiens, UniProt Q14145); experiment: disruptors of Keap1 binding to Nrf2 peptide – biochemical, fluorescence polarization, cherry-picked samples, dose response (AID 588683)
# [14] = target: Intestinal-type alkaline phosphatase (Mus musculus, UniProt P24822); experiment: PubChem AID 488874; type: functional
# [15] = target: T7, Intestinal-type alkaline phosphatase (Homo sapiens, UniProt P09923); experiment: inhibition of human intestinal alkaline phosphatase – biochemical, luminescent, uHTS hits, set 2, dose response (AID 488793); type: functional
# [16] = target: T7, Intestinal-type alkaline phosphatase; experiment: Dose Response confirmation of uHTS hits from a small molecule inhibitors of human intestinal alkaline phosphatase via a luminescent assay. [Related pubchem assays (depositor defined):AID2544, AID2574]; type: functional
# [17] = target: T8, Alkaline phosphatase, tissue-nonspecific isozyme (Homo sapiens, UniProt P05186); experiment: inhibition of tissue-nonspecific alkaline phosphatase – biochemical, dose response (AID 488882); type: functional
# T8 sequence (P05186 whole entry): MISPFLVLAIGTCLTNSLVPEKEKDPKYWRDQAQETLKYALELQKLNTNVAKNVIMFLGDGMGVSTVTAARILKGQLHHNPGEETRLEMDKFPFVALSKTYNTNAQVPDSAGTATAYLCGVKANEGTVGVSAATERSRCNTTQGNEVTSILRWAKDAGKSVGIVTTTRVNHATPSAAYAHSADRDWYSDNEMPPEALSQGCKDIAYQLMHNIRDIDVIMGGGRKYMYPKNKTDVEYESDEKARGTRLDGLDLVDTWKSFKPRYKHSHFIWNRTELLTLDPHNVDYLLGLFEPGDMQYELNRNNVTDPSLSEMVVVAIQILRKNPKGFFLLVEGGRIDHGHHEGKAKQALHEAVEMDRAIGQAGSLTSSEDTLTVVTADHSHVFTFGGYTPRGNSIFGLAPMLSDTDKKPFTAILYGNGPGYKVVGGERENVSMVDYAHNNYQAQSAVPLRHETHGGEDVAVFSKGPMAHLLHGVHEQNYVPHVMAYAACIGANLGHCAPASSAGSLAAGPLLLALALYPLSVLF
# Exodeoxyribonuclease V = Exodeoxyribonuclease V (Escherichia coli (strain K12), UniProt P04993+P07648+P08394); experiment: RecBCD inhibition via phage-restricted bacterial growth – absorbance, V66 E. coli, mutant T4 phage, counter-screen for AddAB inhibitor project, dose response (AID 492957); type: functional, cell-based, Escherichia coli str. K-12 substr. MG1655
# [18] = Counterscreen for AddAB inhibitors: absorbance-based bacterial cell-based high throughput dose response assay for inhibitors of bacterial viability. [Related pubchem assays (depositor defined):AID435030, AID449728, AID449731, AID488942, AID488955, AID488956]; type: functional
# T7 sequence (P09923 whole entry): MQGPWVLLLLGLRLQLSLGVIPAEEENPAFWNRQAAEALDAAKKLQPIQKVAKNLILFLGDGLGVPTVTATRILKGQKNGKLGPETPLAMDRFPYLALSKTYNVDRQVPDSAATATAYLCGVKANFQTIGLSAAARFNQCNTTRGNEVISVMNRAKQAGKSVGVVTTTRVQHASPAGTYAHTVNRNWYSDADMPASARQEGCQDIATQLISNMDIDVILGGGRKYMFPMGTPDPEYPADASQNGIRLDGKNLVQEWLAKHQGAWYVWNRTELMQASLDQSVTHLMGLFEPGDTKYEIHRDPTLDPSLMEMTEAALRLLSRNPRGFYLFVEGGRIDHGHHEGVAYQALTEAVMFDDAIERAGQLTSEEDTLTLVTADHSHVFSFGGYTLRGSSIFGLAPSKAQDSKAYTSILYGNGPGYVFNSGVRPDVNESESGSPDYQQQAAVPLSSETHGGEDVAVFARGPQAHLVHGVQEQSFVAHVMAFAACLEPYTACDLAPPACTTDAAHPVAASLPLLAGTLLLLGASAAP
# T2 sequence (P11940 whole entry, the tested form may be a part): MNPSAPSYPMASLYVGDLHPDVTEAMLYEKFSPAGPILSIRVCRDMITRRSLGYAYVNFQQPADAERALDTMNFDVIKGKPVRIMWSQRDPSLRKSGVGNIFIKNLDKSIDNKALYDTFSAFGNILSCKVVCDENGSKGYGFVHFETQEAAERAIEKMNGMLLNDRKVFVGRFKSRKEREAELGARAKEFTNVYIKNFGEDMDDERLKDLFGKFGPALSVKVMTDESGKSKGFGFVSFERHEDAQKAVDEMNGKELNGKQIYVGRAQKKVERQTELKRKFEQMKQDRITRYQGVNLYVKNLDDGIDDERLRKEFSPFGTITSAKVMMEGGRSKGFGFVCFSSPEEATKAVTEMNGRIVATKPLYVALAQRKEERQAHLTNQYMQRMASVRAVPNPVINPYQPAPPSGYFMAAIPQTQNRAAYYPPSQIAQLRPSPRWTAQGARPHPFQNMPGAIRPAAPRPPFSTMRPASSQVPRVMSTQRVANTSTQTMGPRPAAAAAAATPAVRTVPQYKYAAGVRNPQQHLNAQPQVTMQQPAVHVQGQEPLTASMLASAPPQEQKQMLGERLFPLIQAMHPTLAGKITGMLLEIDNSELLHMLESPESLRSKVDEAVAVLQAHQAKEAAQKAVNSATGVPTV
# T6 sequence (P04054 whole entry): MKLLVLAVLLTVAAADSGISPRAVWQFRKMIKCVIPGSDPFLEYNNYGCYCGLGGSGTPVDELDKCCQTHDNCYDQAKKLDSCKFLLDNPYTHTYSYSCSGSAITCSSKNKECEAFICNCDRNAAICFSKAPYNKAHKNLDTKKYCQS
# Chain of Phosphomannomutase 2 (O15305 whole entry): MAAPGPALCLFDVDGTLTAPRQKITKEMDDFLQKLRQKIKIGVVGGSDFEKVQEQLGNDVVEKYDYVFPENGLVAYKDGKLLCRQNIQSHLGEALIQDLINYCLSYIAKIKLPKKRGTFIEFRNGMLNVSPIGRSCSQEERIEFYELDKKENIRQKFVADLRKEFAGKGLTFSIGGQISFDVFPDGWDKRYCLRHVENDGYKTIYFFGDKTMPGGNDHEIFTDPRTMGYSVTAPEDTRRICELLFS
# Chain of Intestinal-type alkaline phosphatase (Mus musculus, UniProt P24822) (P24822 whole entry): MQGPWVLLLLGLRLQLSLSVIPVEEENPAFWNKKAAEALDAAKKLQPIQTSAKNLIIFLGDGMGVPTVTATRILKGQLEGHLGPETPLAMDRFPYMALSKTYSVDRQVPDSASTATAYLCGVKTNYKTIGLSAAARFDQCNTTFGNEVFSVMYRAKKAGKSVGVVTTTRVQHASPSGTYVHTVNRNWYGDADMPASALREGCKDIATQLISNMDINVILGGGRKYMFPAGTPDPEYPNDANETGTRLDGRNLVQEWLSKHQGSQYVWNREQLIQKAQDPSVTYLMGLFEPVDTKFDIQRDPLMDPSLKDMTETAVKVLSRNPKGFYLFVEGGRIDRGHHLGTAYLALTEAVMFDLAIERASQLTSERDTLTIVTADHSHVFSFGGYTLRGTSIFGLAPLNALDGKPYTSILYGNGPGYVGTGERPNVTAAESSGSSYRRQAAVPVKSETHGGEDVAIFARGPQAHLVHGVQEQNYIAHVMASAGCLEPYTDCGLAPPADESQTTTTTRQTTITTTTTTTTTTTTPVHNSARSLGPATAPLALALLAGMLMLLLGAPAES
# Chain of Genome polyprotein (P29990 2492-3391 limits assumed): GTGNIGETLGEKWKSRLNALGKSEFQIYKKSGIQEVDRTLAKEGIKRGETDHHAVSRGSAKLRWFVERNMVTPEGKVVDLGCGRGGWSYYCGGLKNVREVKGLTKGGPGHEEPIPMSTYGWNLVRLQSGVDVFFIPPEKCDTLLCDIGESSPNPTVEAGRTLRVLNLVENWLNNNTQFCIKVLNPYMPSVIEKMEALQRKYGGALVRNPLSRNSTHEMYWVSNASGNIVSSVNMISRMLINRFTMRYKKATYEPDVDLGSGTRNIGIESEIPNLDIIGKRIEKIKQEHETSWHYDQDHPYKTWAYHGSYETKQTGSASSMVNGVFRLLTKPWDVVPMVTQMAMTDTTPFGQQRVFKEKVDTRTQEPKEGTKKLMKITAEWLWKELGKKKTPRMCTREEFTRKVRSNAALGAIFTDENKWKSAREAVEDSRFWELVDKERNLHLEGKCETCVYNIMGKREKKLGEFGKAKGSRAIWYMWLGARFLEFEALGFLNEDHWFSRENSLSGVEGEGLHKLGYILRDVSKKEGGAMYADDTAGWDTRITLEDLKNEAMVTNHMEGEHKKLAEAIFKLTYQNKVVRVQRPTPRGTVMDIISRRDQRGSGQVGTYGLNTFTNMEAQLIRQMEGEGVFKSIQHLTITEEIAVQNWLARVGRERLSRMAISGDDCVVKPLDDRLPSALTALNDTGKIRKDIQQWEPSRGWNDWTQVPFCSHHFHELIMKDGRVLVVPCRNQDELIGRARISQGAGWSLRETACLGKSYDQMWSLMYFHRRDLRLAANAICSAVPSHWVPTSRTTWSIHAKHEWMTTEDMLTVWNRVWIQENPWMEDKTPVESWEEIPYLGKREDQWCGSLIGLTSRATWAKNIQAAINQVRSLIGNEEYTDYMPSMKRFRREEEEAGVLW
# Chain of Cytochrome P450 2D6 (P10635 whole entry): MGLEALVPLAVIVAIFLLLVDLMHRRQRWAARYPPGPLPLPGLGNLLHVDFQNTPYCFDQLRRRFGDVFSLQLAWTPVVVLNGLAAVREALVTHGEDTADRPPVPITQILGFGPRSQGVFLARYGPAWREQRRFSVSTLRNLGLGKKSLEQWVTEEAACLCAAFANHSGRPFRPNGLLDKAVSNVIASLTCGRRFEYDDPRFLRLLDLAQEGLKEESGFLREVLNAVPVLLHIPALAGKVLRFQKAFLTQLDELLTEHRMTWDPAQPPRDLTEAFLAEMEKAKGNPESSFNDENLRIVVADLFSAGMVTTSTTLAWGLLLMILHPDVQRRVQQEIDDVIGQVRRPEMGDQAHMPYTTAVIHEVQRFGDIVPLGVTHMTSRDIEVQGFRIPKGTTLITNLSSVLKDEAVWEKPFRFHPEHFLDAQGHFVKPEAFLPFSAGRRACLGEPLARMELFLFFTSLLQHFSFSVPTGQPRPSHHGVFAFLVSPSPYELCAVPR
# Chain of Cytochrome P450 2C19 (P33261 whole entry): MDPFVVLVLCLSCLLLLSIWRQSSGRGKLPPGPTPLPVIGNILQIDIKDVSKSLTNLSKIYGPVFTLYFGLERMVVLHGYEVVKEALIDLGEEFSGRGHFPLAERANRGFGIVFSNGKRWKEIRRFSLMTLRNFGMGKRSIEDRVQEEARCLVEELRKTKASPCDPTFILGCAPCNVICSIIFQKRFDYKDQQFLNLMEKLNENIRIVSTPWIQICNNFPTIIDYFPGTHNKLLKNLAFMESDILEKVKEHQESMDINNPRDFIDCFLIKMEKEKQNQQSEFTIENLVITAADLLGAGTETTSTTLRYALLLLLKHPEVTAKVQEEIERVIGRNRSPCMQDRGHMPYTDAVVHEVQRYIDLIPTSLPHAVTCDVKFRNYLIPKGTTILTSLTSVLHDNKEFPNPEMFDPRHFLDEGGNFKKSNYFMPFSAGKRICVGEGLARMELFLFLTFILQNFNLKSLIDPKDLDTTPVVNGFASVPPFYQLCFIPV
# Chain of Large T antigen (P03070 whole entry): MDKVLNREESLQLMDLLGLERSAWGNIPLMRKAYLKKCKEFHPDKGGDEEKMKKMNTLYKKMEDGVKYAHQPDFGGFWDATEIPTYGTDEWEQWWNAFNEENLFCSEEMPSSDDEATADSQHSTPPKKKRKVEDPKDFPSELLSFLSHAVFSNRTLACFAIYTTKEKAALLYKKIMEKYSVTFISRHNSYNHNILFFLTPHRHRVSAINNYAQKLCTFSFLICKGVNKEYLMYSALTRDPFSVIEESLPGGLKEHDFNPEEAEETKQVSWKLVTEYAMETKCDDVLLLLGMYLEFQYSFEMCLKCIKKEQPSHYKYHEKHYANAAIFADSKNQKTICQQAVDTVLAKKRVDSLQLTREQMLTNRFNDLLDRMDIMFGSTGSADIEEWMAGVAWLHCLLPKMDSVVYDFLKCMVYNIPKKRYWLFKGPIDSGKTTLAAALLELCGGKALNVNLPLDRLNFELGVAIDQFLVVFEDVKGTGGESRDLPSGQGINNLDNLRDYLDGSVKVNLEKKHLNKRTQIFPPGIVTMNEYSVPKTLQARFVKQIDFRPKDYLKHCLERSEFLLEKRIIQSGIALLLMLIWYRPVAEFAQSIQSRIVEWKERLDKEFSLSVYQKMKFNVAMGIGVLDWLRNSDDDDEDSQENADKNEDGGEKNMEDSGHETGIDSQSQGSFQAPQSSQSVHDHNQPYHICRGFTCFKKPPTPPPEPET
smiles,measurement,setting,value
O=S(=O)(c1ccccc1)N1CCC[C@@]2(CCN(Cc3cc(C(F)(F)F)cc(C(F)(F)F)c3)C2)C1,AC50,Cytochrome P450 1A2,inconclusive
O=C(Nc1ccc(OCc2ccccc2)cc1)c1cccs1,AC50,[1],1.98 µM (active)
same,AC50,[2],62.6 µM (active)
O=C1NC(=O)C(=Cc2csc3ccccc23)C(=O)N1,IC50,Large T antigen,59.7 µM (active)
same,AC50,[3],6.34 µM (active)
same,IC50,Genome polyprotein,26.9 µM (active)
same,IC50,[4],> 66 µM (inactive)
same,IC50,[5],> 66 µM (inactive)
CC(/C=C\c1cccnc1)=C/C(=O)O,EC50,[6],11 µM (active)
CC(CC(=O)O)(CC(=O)O)C(=O)O,AC50,Cytochrome P450 2C19,inconclusive
same,AC50,Cytochrome P450 2D6,inconclusive
COc1ccc(C)cc1/N=c1\ssnc1Cl,IC50,[7],22.5 µM (active)
same,IC50,Phosphomannomutase 2,> 100 µM (inactive)
Cc1cc(/C=N/n2c(COc3ccccc3)nc3ccccc3c2=O)c(O)c([N+](=O)[O-])c1,EC50,cells [8],> 350 µM (not active)
same,EC50,cells [9],31.7 µM (active)
same,AC50,[1],20.9 µM (active)
same,IC50,Cysteine protease ATG4B [10],17.2 µM (active)
same,IC50,Phospholipase A2 [11],10.5 µM (active)
same,IC50,Phospholipase A2 [12],13.1 µM (active)
same,IC50,Cysteine protease ATG4B [13],22.8 µM (inactive)
NC(=O)c1cc2ccc(O)cc2o/c1=N\Cc1ccccc1,AC50,Keap1/Nrf2,18.7 µM (active)
C/C(=N/Nc1ccccc1[N+](=O)[O-])c1ccc([N+](=O)[O-])cc1,IC50,[14],> 100 µM (inactive)
same,IC50,[15],77.3 µM (active)
same,IC50,[16],69.6 µM (inactive)
same,IC50,[17],> 100 µM (inactive)
O=C1CCC(=O)N(O)CCCCCNC(=O)CCC(=O)N(O)CCCCNC(=O)CCC(=O)N(O)CCCCCN1 [DESMETHYLENYLNOCARDAMINE],IC50,Exodeoxyribonuclease V,> 119 µM (inactive)
same,IC50,[18],> 119 µM (inactive)
